Assay results as given in patent US20220380319A1 (Bial - R&D Investments, S.A., priority 2019, published 2022).
Converted amounts (≈) assume the structure as drawn.

How the values were obtained:
[1] = Compound solubility in water
[2] = target: T1, acid ceramidase (Homo sapiens, UniProt Q13510); experiment: Acid ceramidase inhibition, biochemical fluorescent assay with cell lysates overexpressing acid ceramidase, substrate Rbm14-12; details: substrate Rbm14-12 6.3 μM, pH 4.5
T1 construct: Cell lysates overexpressing acid ceramidase were used as the enzyme source; expressed in transfected cells
T1 sequence (Q13510 22-395): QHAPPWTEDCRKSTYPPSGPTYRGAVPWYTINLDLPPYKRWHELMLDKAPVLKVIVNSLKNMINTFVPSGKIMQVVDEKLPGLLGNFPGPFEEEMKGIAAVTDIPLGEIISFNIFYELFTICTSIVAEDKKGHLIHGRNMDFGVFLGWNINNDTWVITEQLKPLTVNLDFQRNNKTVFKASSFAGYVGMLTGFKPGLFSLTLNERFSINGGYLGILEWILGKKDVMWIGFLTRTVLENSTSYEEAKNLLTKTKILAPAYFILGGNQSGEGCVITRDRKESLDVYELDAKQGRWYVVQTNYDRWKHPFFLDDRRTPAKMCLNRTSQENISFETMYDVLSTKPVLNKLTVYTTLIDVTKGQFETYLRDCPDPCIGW
Procedure, shortened: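 Lysate of cells overexpressing acid ceramidase (10 μg protein) preincubated with compound dose series 1 hr at RT in 25 mM NaAC, 100 mM NaCl, pH 4.5, then reacted 1 hr with 6.3 μM Rbm14-12. Stopped with NaIO4/glycine buffer pH 10.6, fluorescence ex360/em446; IC50 by four-parameter fit.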

Structure (SMILES) | solubility [1] [µg/mL] | IC50 [2] [nM]
CN1CC(N2CCN(c3cccc4c3ncn4C(=O)NCCC3CCC(F)(F)C3)CC2)C1 (centres unmarked) [Example 287, N-(2-(3,3-Difluorocyclopentyl)ethyl)-4-(4-(1-methylazetidin-3-yl)piperazin-1-yl)-1H-benzo[d]imidazole-1-carboxamide] | 36 (≈ 80.6 µM) | 200 to 1000
N#CCCN1CCN(c2cccc3c2ncn3C(=O)NCCC2CCC(F)(F)C2)CC1 (centres unmarked) [Example 288, 4-(4-(2-Cyanoethyl)piperazin-1-yl)-N-(2-(3,3-difluorocyclopentyl)ethyl)-1H-benzo[d]imidazole-1-carboxamide] | 26 (≈ 60.4 µM) | 200 to 1000
CN1C2CCC1CN(c1cccc3c1ncn3C(=O)NCCC1CCC(F)(F)C1)C2 (centres unmarked) [Example 289, N-(2-(3,3-Difluorocyclopentyl)ethyl)-4-(8-methyl-3,8-diazabicyclo[3.2.1]octan-3-yl)-1H-benzo[d]imidazole-1-carboxamide] | 39 (≈ 93.4 µM) | 200 to 1000
CCN1CCN(c2cccc3c2ncn3C(=O)NCCC2CCC(F)(F)C2)CC1 (centres unmarked) [Example 291, N-(2-(3,3-Difluorocyclopentyl)ethyl)-4-(4-ethylpiperazin-1-yl)-1H-benzo[d]imidazole-1-carboxamide] | 20 (≈ 49.3 µM) | 200 to 1000
CN1CC2CCC1CN2c1cccc2c1ncn2C(=O)NCCC1CCC(F)(F)C1 (centres unmarked) [Example 292, N-(2-(3,3-Difluorocyclopentyl)ethyl)-4-(5-methyl-2,5-diazabicyclo[2.2.2]octan-2-yl)-1H-benzo[d]imidazole-1-carboxamide] | 36 (≈ 86.2 µM) | 200 to 1000
CN1CC2CC1CN2c1cccc2c1ncn2C(=O)NCCC1CCC(F)(F)C1 (centres unmarked) [Example 293, N-(2-(3,3-difluorocyclopentyl)ethyl)-4-(5-methyl-2,5-diazabicyclo[2.2.1]heptan-2-yl)-1H-benzo[d]imidazole-1-carboxamide] | 39 (≈ 96.7 µM) | 200 to 1000
CN1CC2CC1CN2c1cccc2c1ncn2C(=O)NCCOc1ccccc1 (centres unmarked) [Example 295, 4-(5-Methyl-2,5-diazabicyclo[2.2.1]heptan-2-yl)-N-(2-phenoxyethyl)-1H-benzo[d]imidazole-1-carboxamide] | 33 (≈ 84.3 µM) | < 200
CN1CC(N2CCN(c3cccc4c3ncn4C(=O)NCCOc3ccccc3)CC2)C1 [Example 296, 4-(4-(1-Methylazetidin-3-yl)piperazin-1-yl)-N-(2-phenoxyethyl)-1H-benzo[d]imidazole-1-carboxamide] | 36 (≈ 82.8 µM) | < 200
CCC#CCNC(=O)n1cnc2c(N3CCN(C)CC3)cccc21 [Example 305, 4-(4-Methylpiperazin-1-yl)-N-(pent-2-yn-1-yl)-1H-benzo[d]imidazole-1-carboxamide] | 27 (≈ 83 µM) | 200 to 1000
CN1CCN(C2CN(c3cccc4c3ncn4C(=O)NCCOc3ccccc3)C2)CC1 [Example 314, 4-(3-(4-Methylpiperazin-1-yl)azetidin-1-yl)-N-(2-phenoxyethyl)-1H-benzo[d]imidazole-1-carboxamide] | 35 (≈ 80.5 µM) | < 200
CNC1CCN(c2cccc3c2ncn3C(=O)NCCOc2ccccc2)C1 (centres unmarked) [Example 315, 4-(3-(Methylamino)pyrrolidin-1-yl)-N-(2-phenoxyethyl)-1H-benzo[d]imidazole-1-carboxamide] | 30 (≈ 79.1 µM) | < 200
O=C(NCCOc1ccccc1)n1cnc2c(N3CCN4CCCC4C3)cccc21 (centres unmarked) [Example 316, 4-(Hexahydropyrrolo[1,2-a]pyrazin-2(1H)-yl)-N-(2-phenoxyethyl)-1H-benzo[d]imidazole-1-carboxamide] | 27 (≈ 66.6 µM) | < 200
CN1CCN(c2cccc3c2ncn3C(=O)NCCOc2ccccc2)CC1CC#N (centres unmarked) [Example 317, 4-(3-(Cyanomethyl)-4-methylpiperazin-1-yl)-N-(2-phenoxyethyl)-1H-benzo[d]imidazole-1-carboxamide] | 26 (≈ 62.1 µM) | < 200
CN1CCN(C2CN(c3cccc4c3ncn4C(=O)NCCC3CCC(F)(F)C3)C2)CC1 (centres unmarked) [Example 318, N-(2-(3,3-Difluorocyclopentyl)ethyl)-4-(3-(4-methylpiperazin-1-yl)azetidin-1-yl)-1H-benzo[d]imidazole-1-carboxamide] | 40 (≈ 89.6 µM) | 200 to 1000
COc1nc2cc(N3CCN(C4CN(C)C4)CC3)c(F)cc2n1C(=O)NCCCc1ccccc1 [Example 319a, 6-Fluoro-2-methoxy-5-(4-(1-methylazetidin-3-yl)piperazin-1-yl)-N-(3-phenylpropyl)-1H-benzo[d]imidazole-1-carboxamide] | 35 (≈ 72.8 µM) | 200 to 1000
COc1nc2cc(F)c(N3CCN(C4CN(C)C4)CC3)cc2n1C(=O)NCCCc1ccccc1 [Example 319b, 5-fluoro-2-methoxy-6-(4-(1-methylazetidin-3-yl)piperazin-1-yl)-N-(3-phenylpropyl)-1H-benzo[d]imidazole-1-carboxamide] | 46 (≈ 95.7 µM) | 200 to 1000

More lines, now with the values ahead:

solubility [1] [µg/mL] | IC50 [2] [nM] | Structure (SMILES)
28 (≈ 67.1 µM) | 200 to 1000 | O=C(NCCC1CCC(F)(F)C1)n1cnc2c(N3CCN4CCCC4C3)cccc21 (centres unmarked) [Example 290, N-(2-(3,3-Difluorocyclopentyl)ethyl)-4-(hexahydropyrrolo[1,2-a]pyrazin-2(1H)-yl)-1H-benzo[d]imidazole-1-carboxamide]
27 (≈ 68.4 µM) | < 200 | CC(C)C#CCNC(=O)n1cnc2c(N3CC(N4CCN(C)CC4)C3)cccc21 [Example 298, N-(4-Methylpent-2-ynyl)-4-(3-(4-methyl-piperazin-1-yl)azetidin-1-yl)-1H-benzo[d]imidazole-1-carboxamide]
30 (≈ 76 µM) | < 200 | CC(C)C#CCNC(=O)n1cnc2c(N3CCN(C4CN(C)C4)CC3)cccc21 [Example 299, 4-(4-(1-Methylazetidin-3-yl)piperazin-1-yl)-N-(4-methylpent-2-yn-1-yl)-1H-benzo[d]imidazole-1-carboxamide]
29 (≈ 85.4 µM) | < 200 | CNC1CCN(c2cccc3c2ncn3C(=O)NCC#CC(C)C)C1 (centres unmarked) [Example 300, 4-(3-(Methylamino)pyrrolidin-1-yl)-N-(4-methylpent-2-ynyl)-1H-benzo[d]imidazole-1-carboxamide]
34 (≈ 96.7 µM) | 200 to 1000 | CC(C)C#CCNC(=O)n1cnc2c(N3CC4CC3CN4C)cccc21 (centres unmarked) [Example 301, 4-(5-Methyl-2,5-diazabicyclo[2.2.1]heptan-2-yl)-N-(4-methylpent-2-ynyl)-1H-benzo[d]imidazole-1-carboxamide]
22 (≈ 60.2 µM) | < 200 | CC(C)C#CCNC(=O)n1cnc2c(N3CCN4CCCC4C3)cccc21 (centres unmarked) [Example 302, 4-(Hexahydropyrrolo[1,2-a]pyrazin-2(1H)-yl)-N-(4-methylpent-2-yn-1-yl)-1H-benzo[d]imidazole-1-carboxamide]
28 (≈ 79.2 µM) | 200 to 1000 | CC(C)C#CCCNC(=O)n1cnc2c(N3CCN(C)CC3)cccc21 [Example 303, N-(5-Methylhex-3-yn-1-yl)-4-(4-methylpiperazin-1-yl)-1H-benzo[d]imidazole-1-carboxamide]
27 (≈ 73.9 µM) | 200 to 1000 | CC(C)C#CCNC(=O)n1cnc2c(N3CC4CCC3CN4C)cccc21 (centres unmarked) [Example 304, 4-(5-Methyl-2,5-diazabicyclo[2.2.2]octan-2-yl)-N-(4-methylpent-2-ynyl)-1H-benzo[d]imidazole-1-carboxamide]
23 (≈ 60.8 µM) | < 200 | CC(C)C#CCNC(=O)n1cnc2c(N3CCN(C)C(CC#N)C3)cccc21 (centres unmarked) [Example 306, 4-(3-(Cyanomethyl)-4-methylpiperazin-1-yl)-N-(4-methylpent-2-ynyl)-1H-benzo[d]imidazole-1-carboxamide]
20 (≈ 52.4 µM) | < 200 | CC(C)C#CCNC(=O)n1cnc2c(N3CCN(C4COC4)CC3)cccc21 [Example 307, N-(4-Methylpent-2-yn-1-yl)-4-(4-(oxetan-3-yl)-piperazin-1-yl)-1H-benzo[d]imidazole-1-carboxamide]
22 (≈ 59.2 µM) | < 200 | CC(C)C#CCNC(=O)n1cnc2c(N3CCN(CCF)CC3)cccc21 [Example 309, 4-(4-(2-Fluoroethyl)piperazin-1-yl)-N-(4-methylpent-2-yn-1-yl)-1H-benzo[d]imidazole-1-carboxamide]
4 (≈ 9.49 µM) | < 200 | CC(C)C#CCNC(=O)n1cnc2c(N3CCN(CCC(F)(F)F)CC3)cccc21 [Example 310, N-(4-Methylpent-2-yn-1-yl)-4-(4-(3,3,3-trifluoropropyl)piperazin-1-yl)-1H-benzo[d]imidazole-1-carboxamide]
31 (≈ 78.8 µM) | < 200 | CC(C)C#CCNC(=O)n1cnc2c(N3CCC4(CCCN4C)CC3)cccc21 [Example 311, 4-(1-Methyl-1,8-diazaspiro[4.5]decan-8-yl)-N-(4-methylpent-2-yn-1-yl)-1H-benzo[d]imidazole-1-carboxamide]
24 (≈ 61 µM) | < 200 | CC(C)C#CCNC(=O)n1cnc2c(N3CCC4CN(C)CC4CC3)cccc21 (centres unmarked) [Example 312, 4-(2-Methyloctahydropyrrolo[3,4-d]azepin-6(1H)-yl)-N-(4-methylpent-2-yn-1-yl)-1H-benzo[d]imidazole-1-carboxamide]
29 (≈ 76.4 µM) | < 200 | CC(C)C#CCNC(=O)n1cnc2c(N3CCC4(CC3)CCN4C)cccc21 [Example 313, 4-(1-Methyl-1,7-diazaspiro[3.5]nonan-7-yl)-N-(4-methylpent-2-yn-1-yl)-1H-benzo[d]imidazole-1-carboxamide]
